Assay results taken from patent US11730720B2, “ALK5 inhibitors” (THERAVANCE BIOPHARMA R&D IP, LLC, priority 2018, dated 2023).

Legend:
[1] = molecular target: T1, recombinant human ALK5 (TGF-βR1) protein (Homo sapiens, UniProt P36897); assay: Biochemical ALK5 (TGF-βR1) assay to measure pKi (LANCE Ultra ULight kinase assay); settings: apparent pKi, converted from pIC50 using the Cheng-Prusoff equation
T1 construct: purchased Life Technologies PR9075A
T1 sequence (P36897 34-503): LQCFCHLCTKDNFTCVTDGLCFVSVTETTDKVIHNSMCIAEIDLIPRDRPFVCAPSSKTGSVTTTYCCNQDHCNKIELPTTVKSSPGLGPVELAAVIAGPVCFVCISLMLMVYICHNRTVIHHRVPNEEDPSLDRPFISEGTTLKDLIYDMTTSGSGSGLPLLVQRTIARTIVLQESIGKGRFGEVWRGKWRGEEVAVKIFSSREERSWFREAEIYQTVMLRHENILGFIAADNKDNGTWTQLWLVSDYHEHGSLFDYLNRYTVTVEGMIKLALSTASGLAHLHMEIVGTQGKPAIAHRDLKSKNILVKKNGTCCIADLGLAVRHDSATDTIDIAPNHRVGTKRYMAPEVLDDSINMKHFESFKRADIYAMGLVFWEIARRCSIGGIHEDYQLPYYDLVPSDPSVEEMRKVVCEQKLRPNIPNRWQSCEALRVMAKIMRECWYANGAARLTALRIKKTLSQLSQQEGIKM
Outline: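 TR-FRET kinase format: compound dose range 10 μM–25 pM equilibrated 60 min with human ALK5 and ULight-labelled topoisomerase 2α peptide in HEPES/MgCl2 buffer pH 7.5 with DTT. Reaction started with ATP (125 μM stock, 5× final), 60 min at 37° C, stopped with EDTA/Eu-anti-phospho antibody; pKi derived from pIC50 via Cheng-Prusoff.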

[2] = test system: TGF-β-stimulated SMAD3 phosphorylation in BEAS-2B cells; assay: Cellular ALK5 potency assay, inhibition of TGF-β stimulated pSMAD3 formation in BEAS-2B cells; format: cell-based; settings: Homo sapiens, inhibition of TGF-β (10 ng/mL) stimulated pSMAD3 formation, 1 hour compound incubation, read-out: BEAS2B pIC50 (converted)
Outline: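 Phospho-SMAD3 was quantified by AlphaLISA in lysates of human lung epithelial BEAS-2B cells. Compound was added 1 h (37 °C, HEPES/BSA-supplemented HBSS) before a 30 min challenge with 10 ng/mL TGF-β. Values are pIC50 relative to stimulated cells without compound.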

Structure (SMILES): NCCn1cc(-c2cnc3ccc(-c4c[nH]nc4-c4ccc(F)c(F)c4)nc3c2)cn1 [Compound 8-17, 2-[4-[6-[3-(3,4-difluorophenyl)-1H-pyrazol-4-yl]-1,5-naphthyridin-3-yl]pyrazol-1-yl]ethanamine]
- Ki [1]: ≤ 0.0316 nM
- IC50 [2]: ≤ 20 nM

Structure (SMILES): Fc1ccc(Cl)cc1-c1[nH]cnc1-c1ccc2ncc(-c3nnn4c3CNCC4)cc2n1 [Compound 2-23, 2-[5-(5-chloro-2-fluoro-phenyl)-1H-imidazol-4-yl]-7-(4,5,6,7-tetrahydrotriazolo[1,5-a]pyrazin-3-yl)-1,5-naphthyridine]
- Ki [1]: 0.0398 to 0.316 nM
- IC50 [2]: 25.1 to 158 nM

Structure (SMILES): CNCC1CN(c2cnc3ccc(-c4c[nH]nc4-c4cc(Cl)c(F)cc4F)nc3c2)C1 [Compound 6-29, 1-[1-[6-[3-(5-chloro-2,4-difluoro-phenyl)-1H-pyrazol-4-yl]-1,5-naphthyridin-3-yl]azetidin-3-yl]-N-methyl-methanamine]
- Ki [1]: ≤ 0.0316 nM
- IC50 [2]: ≤ 20 nM

Structure (SMILES): Fc1ccc(Cl)cc1-c1nc2ccccn2c1-c1ccc2ncc(N3CCCNCC3)cc2n1 [Compound 3-3, 2-[2-(5-chloro-2-fluoro-phenyl)imidazo[1,2-a]pyridin-3-yl]-7-(1,4-diazepan-1-yl)-1,5-naphthyridine]
- Ki [1]: 0.0398 to 0.316 nM
- IC50 [2]: 25.1 to 158 nM

Structure (SMILES): CN1CC2CN(c3cnc4ccc(-c5c[nH]nc5-c5cc(Cl)ccc5F)nc4c3)C2C1 (stereo not drawn) [Compound 1-72, 2-[3-(5-chloro-2-fluoro-phenyl)-1H-pyrazol-4-yl]-7-(3-methyl-3,6-diazabicyclo[3.2.0]heptan-6-yl)-1,5-naphthyridine]
- Ki [1]: 0.398 to 3.16 nM
- IC50 [2]: 25.1 to 158 nM

Structure (SMILES): Fc1cc(F)c(-c2n[nH]cc2-c2ccc3ncc(-c4cnn(CC5CNC5)c4)cc3n2)cc1Cl [Compound 6-42, 7-[1-(azetidin-3-ylmethyl)pyrazol-4-yl]-2-[3-(5-chloro-2,4-difluoro-phenyl)-1H-pyrazol-4-yl]-1,5-naphthyridine]
- Ki [1]: 0.0398 to 0.316 nM
- IC50 [2]: 25.1 to 158 nM

Structure (SMILES): CC(C)NCCn1cc(-c2cnc3ccc(-c4c[nH]nc4-c4cc(Cl)ccc4F)nc3c2)cn1 [Compound 1-94, N-(2-(4-(6-(3-(5-chloro-2-fluorophenyl)-1H-pyrazol-4-yl)-1,5-naphthyridin-3-yl)-1H-pyrazol-1-yl)ethyl)propan-2-amine]
- Ki [1]: ≤ 0.0316 nM
- IC50 [2]: 25.1 to 158 nM

Structure (SMILES): CCN1CCC(N(C)c2cnc3ccc(-c4c[nH]nc4-c4cc(Cl)ccc4F)nc3c2)CC1 [Compound 1-38, 6-[3-(5-chloro-2-fluoro-phenyl)-1H-pyrazol-4-yl]-N-(1-ethyl-4-piperidyl)-N-methyl-1,5-naphthyridin-3-amine]
- Ki [1]: 0.398 to 3.16 nM
- IC50 [2]: 25.1 to 158 nM

Structure (SMILES): CC(C)N1CC2CN(c3cnc4ccc(-c5c[nH]nc5-c5cc(Cl)ccc5F)nc4c3)CC21 (stereo not drawn) [Compound 1-70, 2-(3-(5-chloro-2-fluorophenyl)-112-pyrazol-4-yl)-7-(6-isopropyl-3,6-diazabicyclo[3.2.0]heptan-3-yl)-1,5-naphthyridine]
- Ki [1]: 0.0398 to 0.316 nM
- IC50 [2]: 25.1 to 158 nM

Structure (SMILES): NCCn1cc(-c2cnc3ccc(-c4c[nH]nc4-c4cc(Cl)ccc4F)nc3c2)cn1 [Compound 1-89, 2-[4-[6-[3-(5-chloro-2-fluoro-phenyl)-1H-pyrazol-4-yl]-1,5-naphthyridin-3-yl]pyrazol-1-yl]ethanamine]
- Ki [1]: ≤ 0.0316 nM
- IC50 [2]: 25.1 to 158 nM

Structure (SMILES): CN(C)C1(C)CN(c2cnc3ccc(-c4c[nH]nc4-c4cc(Cl)c(F)cc4F)nc3c2)C1 [Compound 6-20, 1-[6-[3-(5-chloro-2,4-difluoro-phenyl)-1H-pyrazol-4-yl]-1,5-naphthyridin-3-yl]-N,N,3-trimethyl-azetidin-3-amine]
- Ki [1]: 0.398 to 3.16 nM
- IC50 [2]: 25.1 to 158 nM

Structure (SMILES): Fc1ccc(Cl)cc1-c1n[nH]cc1-c1ccc2ncc(-c3ncn4c3CNCC4)cc2n1 [Compound 1-113, 2-[3-(5-chloro-2-fluoro-phenyl)-1H-pyrazol-4-yl]-7-(5,6,7,8-tetrahydroimidazo[1,5-a]pyrazin-1-yl)-1,5-naphthyridine]
- Ki [1]: 0.0398 to 0.316 nM
- IC50 [2]: 25.1 to 158 nM
